How the values were obtained:
[1] = system: vomissements induits par le cisplatine; experiment: Oral antiemetic activity against cisplatin-induced vomiting in the dog; type: in vivo, chien; details: for VOMISSEMENTS % DE DIMINUTION EN NOMBRE / VOMISSEMENTS % DE DIMINUTION EN TOUT OU RIEN / VOMISSEMENTS NOMBRE MOYEN: 6 h observation, 4 dogs; for VOMISSEMENTS NOMBRE MOYEN: control 10,8
Source text: A titre d'exemple, on étudie ci-après l'activité antiémétique par voie orale du chlorhydrate du N-(quinuclidinyl-3) amino-4 chloro-5 méthoxy-2 benzamide, sous la forme du mélange racémique (code MD 780209), de l'énantiomère lévogyre de configuration S (code MD 200054) et de l'énantiomère dextrogyre de configuration R (code MD 200051), vis-à-vis des vomissements induits par le cisplatine chez le chien.
La méthode est dérivée de celle décrite par J.A. GYLYS et coll. (Res. Commun. Chem. Pathol. Pharmacol. 1979, 23, n° 1, p. 61-68). Les vomissements sont induits par injection intraveineuse de cisplatine (DCI) à la dose de 3 mg/kg chez des chiens tout-venants, mâle ou femelle, de poids compris entre 10 et 16 kg, à la diète hydrique depuis 24 heures.
Les composés à tester sont administrés par voie orale 60 minutes après l'injection de cisplatine.
Les animaux sont alimentés 1 h 30 après le traitement. La durée d'observation est de 6 heures après l'injection de cisplatine.

[2] = Side effects and toxicity at the active doses (no method described); type: in vivo; details: in words, compared with the dextrorotatory enantiomer
[3] = dog, 15 μ g/kg oral 60 min after cisplatin 3 mg/kg i.v.
[4] = dog, 30 μ g/kg oral 60 min after cisplatin 3 mg/kg i.v.
[5] = dog, 7,5 μ g/kg oral 60 min after cisplatin 3 mg/kg i.v.

COc1cc(N)c(Cl)cc1C(=O)NC1CN2CCC1CC2 (racemic) [MD 780209, N-(quinuclidinyl-3) amino-4 chloro-5 méthoxy-2 benzamide, reference compound]
VOMISSEMENTS % DE DIMINUTION EN NOMBRE [1, 3]: 81,4% | VOMISSEMENTS % DE DIMINUTION EN TOUT OU RIEN [1, 3]: 25% | VOMISSEMENTS NOMBRE MOYEN [1, 3]: 2

COc1cc(N)c(Cl)cc1C(=O)N[C@H]1CN2CCC1CC2 [MD 200051, N-(quinuclidinyl-3) amino-4 chloro-5 méthoxy-2 benzamide]
VOMISSEMENTS % DE DIMINUTION EN NOMBRE [1, 4]: 34,9% | VOMISSEMENTS % DE DIMINUTION EN TOUT OU RIEN [1, 4]: 0% | VOMISSEMENTS NOMBRE MOYEN [1, 4]: 7

COc1cc(N)c(Cl)cc1C(=O)N[C@@H]1CN2CCC1CC2 [MD 200054, N-(quinuclidinyl-3) amino-4 chloro-5 méthoxy-2 benzamide]
VOMISSEMENTS % DE DIMINUTION EN NOMBRE [1, 5]: 95,3% | VOMISSEMENTS % DE DIMINUTION EN TOUT OU RIEN [1, 5]: 75% | VOMISSEMENTS NOMBRE MOYEN [1, 5]: 0,5 | inhiber les vomissements induits par des drogues anticancéreuses telles que le cisplatine ([1]; in words, compared with the antipode MD 200051 and the corresponding racemate): beaucoup plus actif | effets secondaires [2]: moins d'effets secondaires

From patent EP0280603A1, “Absolute S confirmation enantiomers of amide derivatives of 3-aminoquinuclidine, process for their preparation and their therapeutical use” (DELALANDE S.A., priority 1987, dated 1988)
